Among the data in US20070213283A1, “Macrolides substituted at the 4"-position” (priority 2003, published 2007) are MIC values, retold here.

Test in all cases: MIC, standard broth dilution method in microtitre
Common to all, as to format: cell-based
On the technique in general: Broth dilution looks for growth in wells or tubes with falling amounts of substance.

The test system of test [1] is erythromycin resistant strains of Streptococcus pyogenes. Here is the method:
(§1) Using a standard broth dilution method in microtitre, compounds were tested for antibacterial activity. The compounds in the above examples gave minimum inhibitory concentrations (MICs) less than 1 microgram per millilitre against erythromycin-sensitive and erythromycin-resistant strains of Streptococcus pneumoniae and Streptococcus pyogenes.

Test [2] concerns erythromycin resistant strains of Streptococcus pneumoniae. The method, then: as §1
In another test the test system is S. pyogenes 3565. The settings on record: Streptococcus pyogenes. Here is the method: as §1
(§2) In addition, the MIC (μg/mL) of test compounds against various organisms was determined including:
(§3) S. aureus Smith ATCC 13709, S. pneumoniae SP030, S. pyogenes 3565, E. faecalis ATCC 29212, H. influenzae ATCC 49247, M. catarrhalis ATCC 23246.

Another test deals with S. pneumoniae SP030. The settings on record: Streptococcus pneumoniae. The method, then: as §1, §2, §3
Test [3] concerns S. aureus Smith ATCC 13709. The settings on record: Staphylococcus aureus, ATCC13709. Here is the method:
as §1, §2, §3

For the next test, the system named is E. faecalis ATCC 29212. To be noted: Enterococcus faecalis, ATCC29212. Here is the method:
as §1, §2, §3

Another test relates to H. influenzae ATCC 49247. To be noted: Haemophilus influenzae, ATCC49247. Here is the method: as §1, §2, §3
Test [4] relates to M. catarrhalis ATCC 23246. The settings on record: Moraxella catarrhalis, ATCC23246. The method, then:
as §1, §2, §3

Where [5] appears, read: H. influenzae ATCC 49247, broth dilution in microtitre, read-out: MIC.

Where a name gives a salt, the structure may show the parent alone. Read-outs that look alike come from different tables or passages of the source.

Regarding `CC[C@@H]1OC(=O)[C@H](C)[C@H](O[C@@H]2C[C@](C)(OC)[C@H](OC(=O)CCNCCSc3cnc4c(c3)c(=O)c(C(=O)O)cn4CC)[C@H](C)O2)[C@@H](C)[C@H](O[C@@H]2O[C@H](C)C[C@H](N(C)C)[C@@H]2O)[C@@](C)(OC)C[C@H](C)C(=O)[C@H](C)[C@@H](O)[C@]1(C)O` [Example 5, 4″-O-{3-[2-(3-Carboxy-1-ethyl-4-oxo-1,4-dihydro-[1,8]naphthyridin-6-ylsulfanyl)ethylamino]propionyl}-6-O-methyl-erythromycin A monoformate salt], the MIC in test [1] was at most 0.25 µg/mL; in test [2] it was at most 0.25 µg/mL; in the test on S. pyogenes 3565, at most 1 µg/mL; against S. pneumoniae SP030 it was at most 1 µg/mL; in test [3], at most 1 µg/mL; against E. faecalis ATCC 29212, at most 1 µg/mL.

With `CC[C@@H]1OC(=O)[C@H](C)[C@H](O[C@@H]2C[C@](C)(O)[C@H](OC(=O)CCNCCSc3ccc4c(c3)c(=O)c(C(=O)OC)cn4CC)[C@H](C)O2)[C@@H](C)[C@H](O[C@@H]2O[C@H](C)C[C@H](N(C)C)[C@@H]2O)[C@](C)(OC)C[C@H](C)C(=O)[C@H](C)[C@@H](O)[C@]1(C)O` [Example 7, 4″-O-{3-[2-(3-Carboxyl-1-ethyl-4-oxo-1,4-dihydro-6-quinolinylsulfanyl)ethylamino]propionyl}-6-O-methyl-erythromycin A methyl ester], the MIC in test [1] is at most 0.25 µg/mL; in test [2], at most 0.25 µg/mL; against S. pyogenes 3565, at most 1 µg/mL; in the test with S. pneumoniae SP030, at most 1 µg/mL; in test [3], at most 1 µg/mL; with E. faecalis ATCC 29212, at most 1 µg/mL.

Consider `CC[C@@H]1OC(=O)[C@H](C)[C@H](O[C@@H]2O[C@H](C)[C@H](OC(=O)CCNCCSc3ccc4c(c3)c(=O)c(C(=O)O)cn4CC)[C@@](C)(OC)O2)[C@@H](C)[C@H](O[C@H]2O[C@@H](C)C[C@@H](N(C)C)[C@H]2O)[C@](C)(OC)C[C@H](C)C(=O)[C@@H](C)[C@@H]2NC(=O)O[C@@]12C` [Example 9, 4″-O-{3-[2-(3-Carboxy-1-ethyl-4-oxo-1,4-dihydro-quinolinylsulfanyl)ethylamino]propionyl}-6-O-methyl-11-desoxy-11-(R)amino-erythromycin A11,12-carbamate bis trifluoroacetate salt], for which the MIC is at most 0.25 µg/mL in test [1]; at most 0.25 µg/mL in test [2]; at most 1 µg/mL in the test on S. pyogenes 3565; at most 1 µg/mL in the test on S. pneumoniae SP030; at most 1 µg/mL in test [3]; at most 2 µg/mL in the test with H. influenzae ATCC 49247. The MIC in test [4] is at most 2 µg/mL; with E. faecalis ATCC 29212, at most 1 µg/mL.

For the molecule `CC[C@@H]1OC(=O)[C@H](C)[C@H](O[C@@H]2C[C@](C)(OC)[C@H](OC(=O)CCNCCSc3ccc4c(c3)c(=O)c(C(=O)O)cn4CC)[C@H](C)O2)[C@@H](C)[C@H](O[C@@H]2O[C@H](C)C[C@H](N(C)C)[C@@H]2O)[C@](C)(O)C[C@H](C)CN(C)[C@@H](C)[C@@H]2OC(=O)O[C@@]12C` [Example 11, 4″-O-{3-[2-(3-Carboxy-1-ethyl-4-oxo-1,4-dihydro-6-quinolinysulfanyl)ethylamino]propionyl}-azithromycin11,12-carbonate], the MIC in test [1] is at most 0.25 µg/mL; in test [2], at most 0.25 µg/mL; against S. pyogenes 3565 it was at most 1 µg/mL; in the test on S. pneumoniae SP030, at most 1 µg/mL; in test [3], at most 1 µg/mL; in the test on H. influenzae ATCC 49247 (setting [5]), at most 2 µg/mL. The MIC is at most 2 µg/mL in test [4] and at most 1 µg/mL against E. faecalis ATCC 29212.

For `CC[C@@H]1OC(=O)[C@H](C)[C@H](O[C@@H]2C[C@](C)(OC)[C@H](OC(=O)CCNCCOc3cc4c5c(c3)c(=O)c(C(=O)O)cn5CCC4)[C@H](C)O2)[C@@H](C)[C@H](O[C@@H]2O[C@H](C)C[C@H](N(C)C)[C@@H]2O)[C@](C)(OC)C[C@H](C)C(=O)[C@H](C)[C@@H](O)[C@]1(C)O` [Example 13, 4′-O-{3-[2-(6-Carboxy-7-oxo-2,3-dihydro-1H,7H-pyrido[3,2,1-ij]quinolin-9-yloxy)ethylamino]propionyl}-6-O-methyl-erythromycin A bis trifluoroacetate salt], the MIC was at most 0.25 µg/mL in test [1]; at most 0.25 µg/mL in test [2]; at most 1 µg/mL against S. pyogenes 3565; at most 1 µg/mL with S. pneumoniae SP030; at most 1 µg/mL in test [3]; at most 2 µg/mL in the test with H. influenzae ATCC 49247. Further, the MIC in test [4] was at most 2 µg/mL; in the test on E. faecalis ATCC 29212, at most 1 µg/mL.

With `CC[C@@H]1OC(=O)[C@H](C)[C@H](O[C@@H]2C[C@](C)(OC)[C@H](OC(=O)CCNCCOc3ccc4c(c3)c(=O)c(C(=O)O)cn4CC)[C@H](C)O2)[C@@H](C)[C@H](O[C@@H]2O[C@H](C)C[C@H](N(C)C)[C@@H]2O)[C@](C)(OC)C[C@H](C)C(=O)[C@H](C)[C@@H](O)[C@]1(C)O` [Example 15, 4″-O-{3-[2-(3-Carboxy-1-ethyl-4-oxo-1,4-dihydro-6-quinolinyloxy)ethylamino]propionyl}-6-O-methyl-erythromycin A monoformate salt], the MIC in test [1] and in test [2] was at most 0.25 µg/mL throughout.

Regarding `CC[C@@H]1OC(=O)[C@H](C)[C@H](O[C@@H]2C[C@](C)(OC)[C@H](OC(=O)CCNCCOc3ccc4c(=O)c(C(=O)O)cn(CC)c4c3)[C@H](C)O2)[C@@H](C)[C@H](O[C@@H]2O[C@H](C)C[C@H](N(C)C)[C@@H]2O)[C@](C)(OC)C[C@H](C)C(=O)[C@H](C)[C@@H](O)[C@]1(C)O` [Example 17, 4″-O-{3-[2-(3-Carboxy-1-ethyl-4-oxo-1,4-dihydro-7-quinolinyloxy)ethylamino]propionyl}-6-O-methyl-erythromycin A], the MIC in test [1] was at most 0.25 µg/mL; in test [2], at most 0.25 µg/mL; against S. pyogenes 3565, at most 1 µg/mL; in the test on S. pneumoniae SP030, at most 1 µg/mL; in test [3], at most 1 µg/mL; in the test with H. influenzae ATCC 49247 (setting [5]), at most 2 µg/mL. In addition, the values for the MIC (in test [4]; with E. faecalis ATCC 29212) were at most 2 µg/mL and at most 1 µg/mL, respectively.

As to `CC[C@H]1OC(=O)[C@H](C)[C@@H](O[C@H]2C[C@@](C)(OC)[C@@H](OC(=O)CCOCCNc3cc4c(=O)c(C(=O)O)cn(C5CC5)c4cc3Cl)[C@H](C)O2)[C@@H](C)[C@@H](O[C@@H]2O[C@H](C)C[C@H](N(C)C)[C@H]2O)[C@](C)(O)C[C@@H](C)CN(C)[C@H](C)[C@@H](O)[C@]1(C)O` [Example 18, 4″-O-{3-[2-(3-Carboxy-7-chloro-1-cyclopropyl-4-oxo-1,4-dihydro-4-quinolinylamino)ethoxy]propionyl}-azithromycin], the MIC in test [1] was at most 0.25 µg/mL; in test [2] it was at most 0.25 µg/mL; with S. pyogenes 3565, at most 1 µg/mL; against S. pneumoniae SP030 it was at most 1 µg/mL; in test [3], at most 1 µg/mL; in the test with H. influenzae ATCC 49247 (setting [5]), at most 2 µg/mL. Moreover, the MIC in test [4] was at most 2 µg/mL; in the test on E. faecalis ATCC 29212 it was at most 1 µg/mL.

As to `CC[C@H]1OC(=O)[C@H](C)[C@@H](O[C@H]2C[C@@](C)(OC)[C@@H](OC(=O)CCOCCNc3ccc4c(c3)c(=O)c(C(=O)O)cn4C3CC3)[C@H](C)O2)[C@@H](C)[C@@H](O[C@@H]2O[C@H](C)C[C@H](N(C)C)[C@H]2O)[C@](C)(O)C[C@@H](C)CN(C)[C@H](C)[C@@H](O)[C@]1(C)O` [Example 19, 4″-O-{3-[2-(3-Carboxy-1-cyclopropyl-4-oxo-1,4-dihydro-6-quinolinylamino)ethoxy]propionyl}-azithromycin], the MIC was at most 0.25 µg/mL in test [1]; at most 0.25 µg/mL in test [2]; at most 1 µg/mL in the test with S. pyogenes 3565; at most 1 µg/mL in the test on S. pneumoniae SP030; at most 1 µg/mL in test [3]; at most 2 µg/mL with H. influenzae ATCC 49247 (setting [5]). The figures for the MIC (in test [4]; with E. faecalis ATCC 29212) were at most 2 µg/mL and at most 1 µg/mL, respectively.

In the case of `CC[C@H]1OC(=O)[C@H](C)[C@@H](O[C@H]2C[C@@](C)(OC)[C@@H](OC(=O)CCOCCOc3cc4c(=O)c(C(=O)OCOC(=O)C(C)(C)C)cn(C5CC5)c4cc3Cl)[C@H](C)O2)[C@H](C)[C@@H](O[C@@H]2O[C@H](C)C[C@H](N(C)C)[C@H]2O)[C@](C)(O)C[C@@H](C)CN(C)[C@H](C)[C@@H](O)[C@]1(C)O` [Example 28, 4″-O-(3-{2-[7-chloro-1-cyclopropyl-3-(2,2-dimethyl-propionyloxymethoxycarbonyl)-4-oxo-1,4-dihydro-quinolin-6-yloxy]-ethoxy}-propionyl)-azithromycin], the MIC was at most 0.25 µg/mL in test [1]; at most 0.25 µg/mL in test [2]; at most 1 µg/mL against S. pyogenes 3565; at most 1 µg/mL in the test with S. pneumoniae SP030; at most 1 µg/mL in test [3]; at most 1 µg/mL in the test on E. faecalis ATCC 29212.

As for `CC[C@H]1OC(=O)[C@H](C)[C@@H](O[C@H]2C[C@@](C)(OC)[C@@H](OC(=O)CCOCCNc3cc4c(cc3F)c(=O)c(C(=O)O)cn4C3CC3)[C@H](C)O2)[C@H](C)[C@@H](O[C@@H]2O[C@H](C)C[C@H](N(C)C)[C@H]2O)[C@](C)(O)C[C@@H](C)CN(C)[C@H](C)[C@@H](O)[C@]1(C)O` [Example 40, 4″-O-{3-[2-(3-Carboxy-1-cyclopropyl-6-fluoro-4-oxo-1,4-dihydro-quinolin-7-ylamino)ethoxy]propionyl}-azithromycin], the MIC in the test with S. pyogenes 3565 was at most 1 µg/mL; in the test on S. pneumoniae SP030 it was at most 1 µg/mL; in test [3] it was at most 1 µg/mL; in the test on H. influenzae ATCC 49247 (setting [5]) it was at most 2 µg/mL; in test [4], at most 2 µg/mL; with E. faecalis ATCC 29212 it was at most 1 µg/mL.
